From US20010007017A1, “PEPTIDES WHICH REACT WITH ANTIBODY RE[…] […] FOR HIV DISEASE PROGRESSION” (priority 1996, published 2001)

Tests used:
[1] = tested on: NTM.V Ab in sera of HIV-positive and healthy individuals; test: ELISA IgG reactivity toward NTM peptide, non-heat-inactivated versus heat-inactivated sera; format: binding, human; conditions: compared with the same heat-inactivated sera
Procedure: The antibody binding of individual patient sera (measured by ELISA assay for heat-inactivated sera dilution 1:100) was presented by single point.
(a) Healthy individuals, and (b) HIV-positive patients.
Reactivity of sera collected from the healthy HIV-negative as well as HIV-positive individuals was examined after heat-inactivation at 40° C. and 56° C. The heat treatment of sera was performed in duration of 10, 20 and 30 minutes. Based on the obtained results (FIG. 14), it can be concluded that release of the NTM.V Ab from immune complexes is temperature and time dependent. In these experiments IgG reactivity toward two forms of the NTM peptide were monitored, i.e. uncoupled and BSA-coupled forms. The reactivity patterns of both NTM forms were similar.

[2] = tested on: natural anti-VIP antibodies in sera of HIV-negative asthma patients; conditions: sera of HIV-negative asthma patients with high titres of natural anti-VIP antibodies; cited from earlier work
viral infection = conditions: cited from earlier work

Sequence	reactivity with non-heat-inactivated sera [1]	main end-point titre for hyperimmune sera [2]	reactivity of sera with the peptide [2]	blocking of viral infection (viral infection; in vivo as printed)	effect on lymphocyte function (viral infection; in vivo)
RSANFTDNAKTIIVQLNESVEIN [NTM, HIV-1 gp120-derived natural peptide]	very low reactivity	1/10000	strong reactivity	–	–
VVVRSLTFKTNKKT	–	–	–	effectively blocks viral infection	without impairing lymphocyte function
